This is an account of results in patent publication US11890288B2, “Sulfonamide or sulfinamide compound having effect of inducing BRD4 protein degradation and pharmaceutical use thereof” (MITSUBISHI TANABE PHARMA CORPORATION, priority 2020, dated 2024).

For test [1], the system named is human prostate cancer LNCaP cells. The test can be described thus: Cytotoxic action on LNCaP cells (WST-8, 96 hr). In kind it is cell-based. The following applies: 96 hr culture. The procedure: The cytotoxic action of the compound of the present invention against human cancer cells was evaluated in vitro. In this experiment, (+)-JQ1 (Nature volume 468, pages 1067-1073 (23 Dec. 2010)) known to have an inhibitory activity on the binding of BRD4 protein and a ligand therefor was used as a positive control drug. Respective cells were suspended in 10% FBS/RPMI1640, seeded in a 96 well plate and cultured at 5% CO2, 37° C. overnight. A test compound dissolved in DMSO was diluted with 10% FBS/RPMI1640 and added and the cells were further cultured for 96 hr. After culturing, the viable cell number was measured using a cell number measurement WST-8 kit (Kishida Chemical Co., Ltd.). As a control, the measurement was performed under conditions free of the test compound. The cytotoxic activity of the compound of the present invention against human prostate cancer LNCaP cells is shown in IC50 value in Table 1. The IC50 value is a concentration of the compound showing 50% cell survival rate when the cell survival rate thereof under compound untreated condition is 100%. It was calculated from the straight line connecting the cell survival rate at two points enclosing the 50% cell survival rate and the compound concentration. In addition, the cytotoxic activity against respective cancer cells of human acute myeloid leukemia MV-4-11 cell, human chronic myeloid leukemia K562 cell, human multiple myeloma MM.1S cell, human diffuse large B-cell lymphoma SU-DHL-6 cell, human T-cell leukemia Jurkat cells, human Burkitt lymphoma Raji cell, human castration-resistant prostate cancer PC-3 cell, human AR-V7 positive castration-resistant prostate cancer 22Rv1 cell, human ovarian cancer A2780 cell, human cisplatin-resistant ovarian cancer SK-OV-03 cell, human bladder cancer 5637 cell, human breast cancer ZR-75-1 cell, human triple negative breast cancer MDA-MB-231 cell, human uterus cervix cancer HeLa cell, human uterine sarcoma MES-SA cell, human stomach cancer SNU-16 cell, human non-small cell lung cancer NCI-H2126 cell, human EGFRT790M mutation-positive non-small cell lung cancer NCI-H1975 cell, human small cell lung cancer NCI-H82 cell, human large cell lung cancer NCI-H460 cell, human colon cancer HCT116 cell, human glioma U-87 MG cell, human pancreatic cancer BxPC-3 cell, human liver cancer HLF cell, human bile duct cancer HuCCT1 cell, human renal cell cancer 786-O cell, and human fibrosarcoma HT1080 cell is shown in IC50 value in Table 2.

Another test deals with BRD4 protein (Homo sapiens (Human), UniProt O60885). Briefly: BRD4 protein degradation inducing action in LNCaP cells (immunofluorescence, 6 hr). Format: cell-based. Conditions: anti-BRD4 fluorescence intensity. On the procedure:
The degradation inducing action of the compound of the present invention on BRD4 proteins in cancer cells was evaluated in vitro using human prostate cancer LNCaP cells. LNCaP cells were suspended in 10% FBS/RPMI1640, seeded in a 96 well Cell carrier plate (Perkin Elmer) and cultured at 5% CO2, 37° C. overnight. A test compound dissolved in DMSO was diluted with 10% FBS/RPMI1640 and added and the cells were further cultured for 6 hr. After culturing, the cells were immobilized with 4% para-formaldehyde/PBS and further subjected to a permeation treatment with 0.25% Triton X-100/PBS. Thereafter, the cells were blocked with 10% BSA/PBS, Anti-BRD4 (Sigma-Aldrich) solution was added and the cells were incubated at 4° C. overnight. Furthermore, Goat anti-Rabbit IgG(H+L) Cross-Adsorbed Secondary Antibody, Alexa Fluor 546 (Thermo Fisher Scientific) solution, 0.5 μg/mL Hoechst 33342 (Sigma-Aldrich), and 14 μM Acti-Stain 555 Fluorescent Phalloidin (Cytoskeleton) were added. After incubation for 1 hr, BRD4 protein amount was measured by Operetta (Perkin Elmer) as fluorescence intensity (excitation: 560 nm, emission: 572 nm). The BRD4 protein degradation inducing activity of the compound of the present invention in LNCaP cells is shown in DC50 value in Table 3. The DC50 value is a concentration of the compound showing 50% fluorescence intensity when the fluorescence intensity thereof under compound untreated condition is 100%. It was calculated from the straight line connecting the fluorescence intensity at two points enclosing the 50% fluorescence intensity and the compound concentration.

As for `COC(=O)C[C@@H]1N=C(c2ccc(-c3ccc(C(=O)NCc4ccc(S(=O)(=O)Nc5ccc(C)c6c(C#N)c[nH]c56)cc4)c(F)c3)cc2)c2c(sc(C)c2C)-n2c(C)nnc21` [Example 2, methyl [(6S)-4-{4′-[({4-[(3-cyano-4-methyl-1H-indol-7-yl)sulfamoyl]phenyl}methyl)carbamoyl]-3′-fluoro[1,1′-biphenyl]-4-yl}-2,3,9-trimethyl-6H-thieno[3,2-f][1,2,4]triazolo[4,3-a][1,4]diazepin-6-yl]acetate], the IC50 in test [1] was found to be 0.35 nM. The 50% degradation concentration (DC50) at BRD4 protein amounted to 0.23 nM.
For `COC(=O)C[C@@H]1N=C(c2ccc(-c3ccc(C(=O)NCc4ccc(S(=O)(=O)Nc5ccc(C)c6c(C#N)c[nH]c56)cc4)c(Cl)c3)cc2)c2c(sc(C)c2C)-n2c(C)nnc21` [Example 3, methyl [(6S)-4-{3′-chloro-4′-[({4-[(3-cyano-4-methyl-1H-indol-7-yl)sulfamoyl]phenyl}methyl)carbamoyl][1,1′-biphenyl]-4-yl}-2,3,9-trimethyl-6H-thieno[3,2-f][1,2,4]triazolo[4,3-a][1,4]diazepin-6-yl]acetate], in that order: 0.092 nM and 0.42 nM.
With `COC(=O)C[C@@H]1N=C(c2ccc(N3CC[C@@H](C(=O)NCc4ccc(S(=O)(=O)Nc5ccc(C)c6c(C#N)c[nH]c56)cc4)C3)cc2)c2c(sc(C)c2C)-n2c(C)nnc21` [Example 4, methyl [(6S)-4-(4-{(3R)-3-[({4-[(3-cyano-4-methyl-1H-indol-7-yl)sulfamoyl]phenyl}methyl)carbamoyl]pyrrolidin-1-yl}phenyl)-2,3,9-trimethyl-6H-thieno[3,2-f][1,2,4]triazolo[4,3-a][1,4]diazepin-6-yl]acetate], inhibition in test [1] was half-maximal at 16 nM (IC50). On BRD4 protein, this compound gave a half-maximal degradation concentration (DC50) of 38 nM.
For `COC(=O)C[C@@H]1N=C(c2ccc(C#CC(=O)NCc3ccc(S(=O)(=O)Nc4ccc(C)c5c(C#N)c[nH]c45)cc3)cc2)c2c(sc(C)c2C)-n2c(C)nnc21` [Example 5, methyl [(6S)-4-(4-{3-[({4-[(3-cyano-4-methyl-1H-indol-7-yl)sulfamoyl]phenyl}methyl)amino]-3-oxoprop-1-yn-1-yl}phenyl)-2,3,9-trimethyl-6H-thieno[3,2-f][1,2,4]triazolo[4,3-a][1,4]diazepin-6-yl]acetate], in that order: 4.1 nM and 15 nM.
For `COC(=O)C[C@@H]1N=C(c2ccc(-c3ccc(C(=O)NCc4ccc(S(=O)(=O)Nc5ccc(C)c6c(Cl)c[nH]c56)cc4)cc3)cc2)c2c(sc(C)c2C)-n2c(C)nnc21` [Example 8, methyl [(6S)-4-{4′-[({4-[(3-chloro-4-methyl-1H-indol-7-yl)sulfamoyl]phenyl}methyl)carbamoyl][1,1′-biphenyl]-4-yl}-2,3,9-trimethyl-6H-thieno[3,2-f][1,2,4]triazolo[4,3-a][1,4]diazepin-6-yl]acetate], in that order: 2.8 nM and 2.4 nM.
For `COC(=O)C[C@@H]1N=C(c2ccc(-c3ccc(C(=O)NCc4ccc(S(=O)(=O)Nc5ccc(OC)c6c(C#N)c[nH]c56)cc4)cc3)cc2)c2c(sc(C)c2C)-n2c(C)nnc21` [Example 15, methyl [(6S)-4-{4′-[({4-[(3-cyano-4-methoxy-1H-indol-7-yl)sulfamoyl]phenyl}methyl)carbamoyl][1,1′-biphenyl]-4-yl}-2,3,9-trimethyl-6H-thieno[3,2-f][1,2,4]triazolo[4,3-a][1,4]diazepin-6-yl]acetate], in that order: 0.28 nM and 0.22 nM.
`COC(=O)C[C@@H]1N=C(c2ccc(C3=CCN(C(=O)NCc4ccc(S(=O)(=O)Nc5ccc(C)c6c(C#N)c[nH]c56)cc4)CC3)cc2)c2c(sc(C)c2C)-n2c(C)nnc21` [Example 21, methyl [(6S)-4-(4-{1-[({4-[(3-cyano-4-methyl-1H-indol-7-yl)sulfamoyl]phenyl}methyl)carbamoyl]-1,2,3,6-tetrahydropyridin-4-yl}phenyl)-2,3,9-trimethyl-6H-thieno[3,2-f][1,2,4]triazolo[4,3-a][1,4]diazepin-6-yl]acetate] showed an IC50 in test [1] of 9.8 nM. Also, on BRD4 protein, half-maximal degradation (DC50) was put at 6.7 nM.
Consider `COC(=O)C[C@@H]1N=C(c2ccc(-c3ccc(C(=O)NCc4ccc(S(=O)(=O)Nc5ccc(C)c6c(C#N)c[nH]c56)c(F)c4)cc3)cc2)c2c(sc(C)c2C)-n2c(C)nnc21` [Example 25, methyl [(6S)-4-{4′-[({4-[(3-cyano-4-methyl-1H-indol-7-yl)sulfamoyl]-3-fluorophenyl}methyl)carbamoyl][1,1′-biphenyl]-4-yl}-2,3,9-trimethyl-6H-thieno[3,2-f][1,2,4]triazolo[4,3-a][1,4]diazepin-6-yl]acetate], for which, in test [1], the IC50 amounted to 0.24 nM. This compound also came in with a DC50 at BRD4 protein of 0.16 nM.
The matching figures for `COC(=O)C[C@@H]1N=C(c2ccc(-c3ccc(C(=O)N[C@H](C)c4ccc(S(=O)(=O)Nc5ccc(C)c6c(C#N)c[nH]c56)cc4)cc3)cc2)c2c(sc(C)c2C)-n2c(C)nnc21` [Example 26, methyl [(6S)-4-(4′-{[(1R)-1-{4-[(3-cyano-4-methyl-1H-indol-7-yl)sulfamoyl]phenyl}ethyl]carbamoyl}[1,1′-biphenyl]-4-yl)-2,3,9-trimethyl-6H-thieno[3,2-f][1,2,4]triazolo[4,3-a][1,4]diazepin-6-yl]acetate]: 0.1 nM and 0.14 nM.
`COC(=O)C[C@@H]1N=C(c2ccc(-c3ccc(C(=O)NCC#Cc4ccc(S(=O)(=O)Nc5ccc(C)c6c(C#N)c[nH]c56)cc4)cc3)cc2)c2c(sc(C)c2C)-n2c(C)nnc21` [Example 31, methyl [(6S)-4-{4′-[(3-{4-[(3-cyano-4-methyl-1H-indol-7-yl)sulfamoyl]phenyl}prop-2-yn-1-yl)carbamoyl][1,1′-biphenyl]-4-yl}-2,3,9-trimethyl-6H-thieno[3,2-f][1,2,4]triazolo[4,3-a][1,4]diazepin-6-yl]acetate] showed an IC50 in test [1] of 4.2 nM. On BRD4 protein, this compound showed a half-maximal degradation concentration (DC50) of 5.9 nM.
On to `Cc1sc2c(c1C)C(c1ccc(-c3ccc(C(=O)NCc4ccc(S(=O)(=O)Nc5ccc(C)c6c(C#N)c[nH]c56)cc4)cc3)cc1)=N[C@@H](C)c1nnc(C)n1-2` [Example 32, N-({4-[(3-cyano-4-methyl-1H-indol-7-yl)sulfamoyl]phenyl}methyl)-4′-[(6S)-2,3,6,9-tetramethyl-6H-thieno[3,2-f][1,2,4]triazolo[4,3-a][1,4]diazepin-4-yl][1,1′-biphenyl]-4-carboxamide], for which, in test [1], the IC50 is 0.69 nM. For the same compound, the DC50 at BRD4 protein amounted to 0.42 nM.
For `COC(=O)C[C@@H]1N=C(c2ccc(-c3ccc4oc(C(=O)NCc5ccc(S(=O)(=O)Nc6ccc(C)c7c(C#N)c[nH]c67)cc5)cc4c3)cc2)c2c(sc(C)c2C)-n2c(C)nnc21` [Example 35, methyl [(6S)-4-(4-{2-[({4-[(3-cyano-4-methyl-1H-indol-7-yl)sulfamoyl]phenyl}methyl)carbamoyl]-1-benzofuran-5-yl}phenyl)-2,3,9-trimethyl-6H-thieno[3,2-f][1,2,4]triazolo[4,3-a][1,4]diazepin-6-yl]acetate], in that order: 7.2 nM and 2.7 nM.
Consider `COC(=O)NC1N=C(c2ccc(-c3ccc(C(=O)NCc4ccc(S(=O)(=O)Nc5ccc(C)c6c(C#N)c[nH]c56)cc4)cc3)cc2)c2c(sc(C)c2C)-n2c(C)nnc21` (centres unmarked) [Example 36, methyl (4-{4′-[({4-[(3-cyano-4-methyl-1H-indol-7-yl)sulfamoyl]phenyl}methyl)carbamoyl][1,1′-biphenyl]-4-yl}-2,3,9-trimethyl-6H-thieno[3,2-f][1,2,4]triazolo[4,3-a][1,4]diazepin-6-yl)carbamate], for which, in test [1], the IC50 turned out to be 1.4 nM. In addition, the half-maximal degradation concentration (DC50) at BRD4 protein amounted to 0.41 nM.
